Laboratory results as given in the supplement of paper PMC10331698.
± gives the standard deviation of the averaged measurements.

What was measured:
Assay in all cases: level (log10 ratio to DMSO vehicle control); higher = higher biomarker level / cell amount than vehicle control
[1] = compound: OCCC(F)(F)C(F)(F)C(F)(F)C(F)(F)C(F)(F)C(F)(F)C(F)(F)C(F)(F)F [8:2 Fluorotelomer alcohol]; settings: 6700 nM; in DMSO
Experimental: (§1)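 BioMAP Diversity Plus panel of 12 human primary cell co-culture systems (3C, 4H, LPS, SAg, BT, BF4T, BE3C, CASM3C, HDF3CGF, KF3CT, MyoF, Mphg). Compounds were added 1 h before stimulation and left for 24 h (MyoF 48 h; BT 72 h for soluble read-outs or 6 d for IgG). Biomarkers were read by ELISA, cytotoxicity by SRB, PBMC viability and proliferation by Alamar Blue. Each well value was divided by the mean of 8 DMSO control wells on the same plate and log10 transformed; duplicate blinded samples were tested at 4 concentrations.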

Methotrexate = compound: CN(Cc1cnc2nc(N)nc(N)c2n1)c1ccc(C(=O)N[C@@H](CCC(=O)O)C(=O)O)cc1 [Methotrexate]; settings: in DMSO
Experimental: as §1

[2] = compound: OCCCCC(F)(F)C(F)(F)C(F)(F)C(F)(F)F [4:4 Fluorotelomer alcohol]; settings: in DMSO
Experimental: as §1

[3] = compound: O=S(=O)(O)CCC(F)(F)C(F)(F)C(F)(F)C(F)(F)F [4:2 Fluorotelomer sulfonic acid]; settings: in DMSO
Experimental: as §1

Tetrafluorosuccinic acid = compound: O=C(O)C(F)(F)C(F)(F)C(=O)O [Tetrafluorosuccinic acid]; settings: in DMSO
Experimental: as §1

[4] = compound: C=CC(=O)OCC(F)(F)C(F)(F)C(F)(F)C(F)(F)COC(=O)C=C [1H,1H,6H,6H-Perfluorohexane-1,6-diol diacrylate]; settings: 6700 nM; in DMSO
Experimental: as §1

Perfluorooctanoic acid = compound: O=C(O)C(F)(F)C(F)(F)C(F)(F)C(F)(F)C(F)(F)C(F)(F)C(F)(F)F [Perfluorooctanoic acid]; settings: in DMSO
Experimental: as §1

[5] = compound: O=C(CC(=O)C(F)(F)C(F)(F)C(F)(F)F)c1cccs1 [(Perfluorobutyryl)-2-thenoylmethane]; settings: in DMSO
Experimental: as §1

Test System	level (log10) [1]	level (log10) (Methotrexate; 1500 nM)	level (log10) (Methotrexate; 4400 nM)	level (log10) (Methotrexate; 13000 nM)	level (log10) (Methotrexate; 40000 nM)	level (log10) ([2]; 6700 nM)	level (log10) ([2]; 20000 nM)	level (log10) ([2]; 60000 nM)	level (log10) ([3]; 6700 nM)	level (log10) ([3]; 20000 nM)	level (log10) ([3]; 60000 nM)	level (log10) (Tetrafluorosuccinic acid; 6700 nM)	level (log10) (Tetrafluorosuccinic acid; 20000 nM)	level (log10) (Tetrafluorosuccinic acid; 60000 nM)	level (log10) [4]	level (log10) (Perfluorooctanoic acid; 6700 nM)	level (log10) (Perfluorooctanoic acid; 20000 nM)	level (log10) (Perfluorooctanoic acid; 60000 nM)	level (log10) ([5]; 6700 nM)	level (log10) ([5]; 20000 nM)
lMphg:CD69	-0.086 ± 0.035	-0.03 ± 0.021	-0.0135 ± 0.036	-0.0325 ± 0.057	-0.034 ± 0.054	-0.0475 ± 0.04	-0.063 ± 0.018	-0.014 ± 0.045	-0.023 ± 0.0028	-0.014 ± 0.021	-0.044 ± 0.059	-0.048 ± 0.021	0.0125 ± 0.047	0.059 ± 0.073	-0.06 ± 0.0042	-0.048 ± 0.028	-0.0655 ± 0.05	-0.033 ± 0.11	-0.169 ± 0.049	-0.23 ± 0.013
CASM3C:CD106/VCAM-1	-0.0825 ± 0.015	-0.022 ± 0.05	0.016 ± 0.0014	0.009 ± 0.0028	-0.002 ± 0.027	-0.015 ± 0.03	-0.0205 ± 0.00071	0.006 ± 0.027	0.0035 ± 0.0078	-0.0285 ± 0.025	-0.0325 ± 0.005	0.0015 ± 0.0035	-0.008 ± 0.027	-0.0045 ± 0.0064	-0.128 ± 0.02	-0.033 ± 0.011	-0.0165 ± 0.00071	0.019 ± 0.017	-0.0225 ± 0.012	-0.104 ± 0.028
lMphg:CD40	-0.0275 ± 0.0035	0.0125 ± 0.005	0.0005 ± 0.013	-0.0155 ± 0.023	0.0045 ± 0.0021	-0.0295 ± 0.005	-0.0195 ± 0.029	-0.0055 ± 0.033	-0.008 ± 0.0028	-0.015 ± 0.021	-0.026 ± 0.011	-0.0125 ± 0.015	-0.011 ± 0.0014	0.009 ± 0.014	-0.051 ± 0.024	-0.0035 ± 0.021	-0.021 ± 0.0057	-0.018 ± 0.014	-0.0105 ± 0.016	-0.119 ± 0.0071
CASM3C:HLA-DR	-0.022 ± 0.018	0.0795 ± 0.0021	-0.004 ± 0.068	-0.079 ± 0.013	0.0375 ± 0.015	-0.0045 ± 0.019	-0.015 ± 0.0042	0.019 ± 0.027	0.0045 ± 0.0064	-0.017 ± 0.014	-0.0115 ± 0.00071	-0.005 ± 0.0099	-0.0145 ± 0.013	0.0015 ± 0.0064	-0.008 ± 0.12	0.0045 ± 0.015	-0.0045 ± 0.0021	-0.0045 ± 0.043	-0.018 ± 0.0042	-0.0365 ± 0.022
KF3CT:SRB	0.0075 ± 0.0064	0.0105 ± 0.012	-0.002 ± 0.0057	0.0025 ± 0.0035	0.009 ± 0.021	-0.02 ± 0.0085	-0.011 ± 0.017	0.004 ± 0.018	-0.0015 ± 0.0021	-0.0015 ± 0.0021	0.0035 ± 0.0092	-0.012	-0.0005 ± 0.0078	0.001 ± 0.0042	0.003 ± 0.0057	-0.005 ± 0.0014	-0.003 ± 0.0014	0.007 ± 0.037	-0.008	-0.0105 ± 0.005
HDF3CGF:CD106/VCAM-1	-0.0265 ± 0.015	0.028 ± 0.031	0.01 ± 0.03	0.0355 ± 0.069	-0.0225 ± 0.1	-0.028 ± 0.083	-0.0125 ± 0.04	-0.0215 ± 0.0021	0.0515 ± 0.081	0.0365 ± 0.094	0.021 ± 0.11	0.003 ± 0.027	-0.029 ± 0.037	-0.033 ± 0.045	-0.676 ± 0.061	-0.0055 ± 0.005	-0.011 ± 0.017	-0.024 ± 0.013	-0.0405 ± 0.018	0.025 ± 0.0042
HDF3CGF:CXCL10/IP-10	-0.039 ± 0.0085	0.013 ± 0.0028	0.002 ± 0.0057	0.0035 ± 0.00071	-0.001 ± 0.016	0.0065 ± 0.0092	0.0155 ± 0.013	0.0105 ± 0.016	0.0085 ± 0.0078	-0.013 ± 0.016	-0.0205 ± 0.06	-0.0225 ± 0.0078	-0.027 ± 0.04	-0.0425 ± 0.064	-0.492 ± 0.023	-0.0035 ± 0.011	-0.017 ± 0.016	-0.03 ± 0.034	-0.01	-0.141 ± 0.012
CASM3C:CXCL8/IL-8	-0.006 ± 0.011	0.0365 ± 0.057	0.0255 ± 0.06	0.034 ± 0.05	0.063 ± 0.061	0.0125 ± 0.0035	0.0095 ± 0.032	0.026 ± 0.045	0.0035 ± 0.0035	-0.0095 ± 0.026	0.0075 ± 0.025	-0.001 ± 0.0042	-0.0145 ± 0.018	-0.002 ± 0.016	-0.015 ± 0.0028	0.014 ± 0.0085	0.009 ± 0.0042	0.052 ± 0.014	-0.0045 ± 0.0021	-0.043 ± 0.0057
HDF3CGF:CXCL8/IL-8	0.005 ± 0.0099	-0.0035 ± 0.011	-0.0075 ± 0.0064	0.0145 ± 0.0035	0.004 ± 0.0085	-0.0065 ± 0.0035	0.01 ± 0.0071	0.01 ± 0.0014	-0.011 ± 0.016	-0.0025 ± 0.0021	0.007 ± 0.017	-0.01 ± 0.0085	-0.004 ± 0.0085	-0.0055 ± 0.0078	-0.021 ± 0.0057	0.0015 ± 0.0021	0.002 ± 0.0014	0.015 ± 0.014	0.01 ± 0.0014	0.015 ± 0.0071
MyoF:Collagen IV	0.0065 ± 0.0021	-0.0195 ± 0.025	0.004 ± 0.033	0.007 ± 0.061	-0.014 ± 0.016	0.002 ± 0.03	-0.009 ± 0.044	0.0145 ± 0.063	-0.0075 ± 0.00071	-0.037 ± 0.0057	-0.0225 ± 0.025	0.008	0.003 ± 0.0099	0.0115 ± 0.015	-0.0715 ± 0.015	0.011 ± 0.014	0.051 ± 0.033	0.214 ± 0.03	0.018 ± 0.1	0.534 ± 0.07
BE3C:Keratin 8/18	-0.0185 ± 0.012	-0.0105 ± 0.047	-0.035 ± 0.042	-0.022 ± 0.057	-0.024 ± 0.025	-0.0025 ± 0.0035	-0.012 ± 0.0042	0.0055 ± 0.015	0.0065 ± 0.0021	-0.002 ± 0.0014	0.0005 ± 0.0035	0.0225 ± 0.012	0.009 ± 0.013	0.0165 ± 0.00071	0.0075 ± 0.005	-0.0145 ± 0.0064	-0.01 ± 0.0014	0.0065 ± 0.028	-0.0535 ± 0.025	-0.145 ± 0.005
MyoF:SRB	-0.0005 ± 0.015	0.012 ± 0.013	0.003	0.0125 ± 0.0064	-0.0005 ± 0.005	-0.0025 ± 0.0035	-0.0065 ± 0.0021	0.006 ± 0.017	-0.004 ± 0.0071	-0.0045 ± 0.0021	-0.004 ± 0.0028	-0.0035 ± 0.0035	-0.0135 ± 0.0021	-0.01 ± 0.0014	-0.0185 ± 0.013	0.0025 ± 0.0035	0.0065 ± 0.012	-0.034 ± 0.0057	-0.0225 ± 0.022	-0.0395 ± 0.0035
HDF3CGF:PAI-I	-0.0555 ± 0.0035	-0.0705 ± 0.14	-0.0725 ± 0.079	-0.0445 ± 0.079	-0.081 ± 0.16	-0.0015 ± 0.012	0.0075 ± 0.03	0.0075 ± 0.054	0.0085 ± 0.044	-0.011 ± 0.014	-0.02 ± 0.021	-0.0295 ± 0.0078	-0.009 ± 0.0014	0.003 ± 0.037	-0.074 ± 0.016	0.02 ± 0.0071	0.0425 ± 0.019	0.088 ± 0.065	0.0475 ± 0.052	-0.0845 ± 0.046
CASM3C:CXCL9/MIG	0.0025 ± 0.026	0.0375 ± 0.021	0.0225 ± 0.0092	0.0165 ± 0.026	0.0615 ± 0.035	0.0115 ± 0.0035	0.0065 ± 0.026	0.0345 ± 0.059	-0.04 ± 0.03	-0.0225 ± 0.013	0.006 ± 0.033	-0.006 ± 0.0099	-0.0135 ± 0.0021	0.014 ± 0.0085	-0.154 ± 0.031	0.016 ± 0.0085	-0.0065 ± 0.04	0.042 ± 0.076	-0.0295 ± 0.018	-0.0945 ± 0.077
